From patent US20220411362A1, “DITERPENOID COMPOUNDS THAT ACT ON PROTEIN KINASE C (PKC)” (K-Gen, Inc., priority 2019, published 2022)
Read-outs that look alike come from different tables or passages of the source.

What was measured:
[1] = system: phosphorylation of PKCμ, PKCδ and Erk1/2 in A549 lung cancer cells; format: cell-based; conditions: 0.3 μM, 30 minutes, Western blot (FIG. 1)
Experimental: Cells were then treated with different drugs at indicated concentrations for 30 minutes. […] Imagequant LAS4000 (GE) was used to scan membranes if secondary antibodies anti-mouse IgG HRP conjugate or anti-rabbit IgG HRP conjugate (dilutions from 1:2000-1:10000) were used. For ProteinSimple Wes system, manufacture's procedure was followed (ProteinSimple 12-230 kDa Wes Separation Module) for sample preparation, loading, running, and data analysis.
Phosphorylation of these sites has been linked to acute activation or catalytic activity of the PKC isoforms and Erk1/2. High level of phosphorylation indicates strong activation.

[2] = Pharmacokinetic study, intravenous bolus injection in rats; format: in vivo; conditions: Sprague Dawley; for concentration at 0.0167 hour / concentration at 0.0833 hour / concentration at 0.25 hour / concentration at 0.5 hour / concentration at 1 hour / concentration at 2 hour / concentration at 4 hour / concentration at 7 hour / concentration at 24 hour / Vd: plasma, rat; for concentration at 0.0167 hour: 0.0167 hour post dose; for concentration at 0.0167 hour / concentration at 0.0833 hour / concentration at 0.25 hour / concentration at 0.5 hour / concentration at 1 hour / concentration at 2 hour / concentration at 4 hour / concentration at 7 hour / concentration at 24 hour: read-out: Concentration in Rat Plasma after Bolus Injection, Mean; for concentration at 0.0833 hour: 0.0833 hour post dose; for concentration at 0.25 hour: 0.25 hour post dose; for concentration at 0.5 hour: 0.5 hour post dose; for concentration at 1 hour: 1 hour post dose; for concentration at 2 hour: 2 hour post dose; for concentration at 4 hour: 4 hour post dose; for concentration at 7 hour: 7 hour post dose; for concentration at 24 hour: 24 hour post dose; for AUC(0-t) / C0 / MRT inf / clearance / half-life / Vd: rat plasma; for Vd: iv
Experimental: Pharmacokinetic (PK) studies were conducted for compounds described in this disclosure, and the PK study of K101-C1327 administered by intravenous injection in rats is given as an example. Briefly, K101-C1327 was dissolved in a pH 5 buffer solution at the concentrations of 2.0 mg/mL, and diluted to 0.04 and 0.08 mg/mL to achieve the doses of 0.1 and 0.2 mg/kg with a dosing volume of 2.5 mL/kg, respectively. The K101-C1327 dosing solutions were administered via intravenous bolus injection in 3 rats (Sprague Dawley). Plasma samples were taken at 1 minute, 5 minutes, 15 minutes, 30 minutes, 1 hour, 2 hours, 4 hours, 7 hours, and 24 hours. The drug concentrations at each time point were determined by LC-MS. The results of drug concentrations and pharmacokinetic parameters are presented in the Table 6 and Table 7, respectively, below.

## CC1=C[C@H]2[C@@]3(O)[C@H](C)C[C@]4(OC(=O)[C@@H](N)CC5CCCCC5)[C@H]([C@@H]3C=C(CO)C[C@]2(O)C1=O)C4(C)C [Compound K101-C1327]
[1]
  phosphorylation of PKC (PKD/PKCμ), PKCδ and Erk1/2: induced high levels of phosphorylation
[2]; dose 0.1 mg/kg
  concentration at 0.0167 hour: 216 ng/mL
  concentration at 0.0833 hour: 49.2 ng/mL
  concentration at 0.25 hour: 28.7 ng/mL
  concentration at 0.5 hour: 19.4 ng/mL
  concentration at 1 hour: 14.6 ng/mL
  concentration at 2 hour: 5 ng/mL
  concentration at 4 hour: 1 ng/mL
  concentration at 7 hour: < 1 ng/mL
  concentration at 24 hour: < 1 ng/mL
[2]; dose 0.2 mg/kg
  concentration at 0.0167 hour: 334 ng/mL
  concentration at 0.0833 hour: 102 ng/mL
  concentration at 0.25 hour: 65 ng/mL
  concentration at 0.5 hour: 43.6 ng/mL
  concentration at 1 hour: 37.6 ng/mL
  concentration at 2 hour: 29.1 ng/mL
  concentration at 4 hour: 6 ng/mL
  concentration at 7 hour: < 1 ng/mL
  concentration at 24 hour: < 1 ng/mL
[2]; 0.1 mg/kg
  AUC(0-t): 48.3 ng·h/mL
  C0: 314 ng/mL
  MRT inf: 0.873 h
  clearance: 32.9 mL/min/kg
  half-life: 51.4 min
[2]; 0.2 mg/kg
  AUC(0-t): 119 ng·h/mL
  C0: 450 ng/mL
  MRT inf: 2.93 h
  clearance: 21.5 mL/min/kg
  half-life: 137 min
[2]; 0.1 mg/kg, 0.1 mg/kg, read-out: Vss
  Vd: 1.73 L/kg
[2]; 0.1 mg/kg, 0.1 mg/kg, read-out: Vz
  Vd: 2.44 L/kg
[2]; 0.2 mg/kg, 0.2 mg/kg, read-out: Vss
  Vd: 2.77 L/kg
[2]; 0.2 mg/kg, 0.2 mg/kg, read-out: Vz
  Vd: 3.25 L/kg
